# US20050289663A1, “Method of constructing orchid haploid by treating unfertilized orchid flower with auxin and method of growing orchid” (SAPPORO BREWERIES LIMITED, priority 2002, published 2005)
# Columns and labels:
# [1] = system: Bletilla. Brigantes “H5-11”; assay: Auxin treatment of unfertilized orchid flowers: parthenogenetic seed formation, germination and ploidy check (flow cytometry, chromosome count); assay type: in vivo
# Protocol: In the first embodiment, Bletilla. Brigantes “H5-11” was used. The supplied testing plants were grown in the conventional method. The blooming was affirmed, pollens were removed and a treatment of dropping of 10 micro liter was performed with the warmed lanolin paste which contains 2% of α-naphthaleneacetic acid at column using the syringe. Since two or more flowers might exist in the same inflorescence, the above-mentioned treatment was performed about for each one repeatedly five or more times. After individuals in which its ovary got fat are ripened completely (6 to 7 months after the treatment), then they were obtained, they were sterilized their surface for 5 minutes with 0.5% of sodium hydrochlorite solution, planted them on a medium in germfree container, and the germination was forced. After planting, when the number of planted seeds and the number of seed with embryo were observed, 11 seeds with embryo were observed out of 7000 of the planted total number of seeds. […] After plants originating in auxin treatment grew in the suitable size for sampling (1 to 2 months after germination), DNA contents of these plants originating in auxin treatment were measured by flow cytometry, then chromosomes were observed simultaneously and the number of chromosomes was investigated. The investigation was done by obtaining new leaf of seedling, plants treated with α-naphthaleneacetic acid (NAA) of the present invention were investigated and also plants originating in self-pollination were investigated as a comparison. FIG. 2 is views showing results of analysis based on flow cytometry. FIG. 3 is views showing observation results of chromosomes under a microscope.
# Zygopetalum = conditions: given to stigma of Zygopetalum; cited from earlier work
smiles,measurement,setting,value
O=C(O)Cc1cccc2ccccc12 [α-naphthaleneacetic acid],number of chromosomes of the plant originating in auxin treatment,"[1]; 1 to 2 months after germination, microscope, 32 chromosomes for Bletilla Bringantes",16
same,DNA amount by flow cytometry: peak position versus plant originating in self-pollination,"[1]; 1 to 2 months after germination, new leaf of seedling",half ploidy level
same,buds of plants originating in auxin treatment observed in the seeds with embryo,"[1]; 2 weeks after planting of seeds, from the 11 seeds with embryo",8
same,DNA contents by flow cytometry: peak position versus plants originating in self-pollination,[1]; 5 to 6 months after germination,almost same position
same,number of seeds with embryo,"[1]; out of 7000 of the planted total number of seeds, 10 micro liter lanolin paste containing 2% α-naphthaleneacetic acid dropped at column of unfertilized flower",11
same,induction of parthenogenesis,Zygopetalum,parthenogenesis has been induced
